Counter-ions that a name gives are not always drawn.
Tested on: tracheal specimens excised from guinea pigs
Assay: Inhibitory effect on KCl-induced contraction of tracheal specimens excised from guinea pigs (Magnus tube)
Format: cell-based
Settings: Cavia porcellus; dose required for relaxing KCl-induced contraction to 50 %; final KCl concentration: 20 mM; 37 °C; compounds other than acid addition salts used as hydrochloride; 3 specimens per group; read-out: ED₅₀ Effect on KCl-induced contraction
Procedure: The bronchial smooth muscle-relaxing action of the sulfonamide derivative of the present invention was evaluated by the effect on suppression of KCl-induced contraction and PGF2α-induced contraction of bronchial specimens excised from guinea pigs.
According to a method in which tracheal specimens excised from guinea pigs were used (Takagi and Ozawa, "Yakubutsugaku Jikken (Experiments in Pharmacology)", pp.100-102, 1960, published by Nanzando Japan; and Fujiwara and Shibata, "Yakurigaku Kiso Jikenho (Methods of Fundamental Experiments in Pharmacology)" pp.131-134, 1982, published by Kyourin, Japan), relaxing effect of sulfonamide derivatives of the present invention on bronchial smooth muscle was examined. Of compounds (1) to (69) shown herein, compounds other than acid addition salts were individually used in the form of a hydrochloride which was obtained by the same method as described in Example 61.
From male guinea pigs weighing 350 to 500 g (Hartley strain, Kuroda Junkei Dobutsu), tracheas were excised and each of the excised tracheal specimens was hung in 20 ml of a Magnus tube filled with Krebs-Henseleit solution under isotonic conditions and the solution temperature was kept at 37 °C. An aqueous KCl solution was dropwise added into the Magnus tube (final KCl concentration: 20 mM) to contract the tracheal specimen. After the KCl-induced contraction became stable, each of the compounds of the present invention was dissolved in distilled water or physiological saline, and the compound solution was cumulatively added into the Magnus tube. The relaxing effect of each of the compounds of the present invention on contracted tracheal specimens was evaluated and a dose-response curve was obtained.
A dose required for relaxing KCl-induced contraction to 50 %, i.e., ED₅₀ was calculated from the dose-response curve. For comparison, the same method as described above was repeated except that aminophylline was used, to thereby determine an ED₅₀. The number of tracheal specimens in each group was 3.

EC50 | Compound
7.4 µM | O=S(=O)(NCCNCCc1ccc2c(c1)OCO2)c1cccc2cnccc12 [(1), N-[2-(3,4-methylenedioxyphenethylamino)ethyl]-5-isoquinolinesulfonamide]
15 µM | O=S(=O)(NCCNCCc1ccc2c(c1)OCO2)c1cccc2c(O)nccc12 [(2), N-[2-(3,4-methylenedioxyphenethylamino)ethyl]-1-hydroxy-5-isoquinolinesulfonamide hydrochloride]
28 µM | COc1ccc(CCNCCNS(=O)(=O)c2ccc(Cl)c3ncccc23)cc1 [(5), N-[2-(4-methoxyphenethylamino)ethyl]-8-chloro-5-quinolinesulfonamide]
60 µM | O=S(=O)(NCCNCCc1ccc(Cl)cc1)c1ccc(Cl)c2ncccc12 [(6), N-[2-(4-chlorophenethylamino)ethyl]-8-chloro-5-quinolinesulfonamide]
70 µM | O=S(=O)(NCCNCCc1ccc(C(F)(F)F)cc1)c1ccc(Cl)c2ncccc12 [(7), N-[2-(4-trifluoromethylphenethylamino)ethyl]-8-chloro-5-quinolinesulfonamide]
120 µM | COc1ccc(CCNCCNS(=O)(=O)c2ccc(Cl)c3ncccc23)cc1OC [(8), N-[2-(3,4-dimethoxyphenethylamino)ethyl]-8-chloro-5-quinolinesulfonamide]
30 µM | O=S(=O)(NCCNCCc1ccc2c(c1)OCO2)c1ccc(Cl)c2ncccc12 [(9), N-[2-(3,4-methylenedioxyphenethylamino)ethyl]-8-chloro-5-quinolinesulfonamide]
120 µM | O=S(=O)(NCCNCc1cccc(Cl)c1)c1ccc(Cl)c2ncccc12 [(10), N-[2-(3-chlorobenzylamino)ethyl]-8-chloro-5-quinolinesulfonamide]
125 µM | COc1ccc(CNCCNS(=O)(=O)c2ccc(Cl)c3ncccc23)cc1 [(11), N-[2-(4-methoxybenzylamino)ethyl]-8-chloro-5-quinolinesulfonamide]
160 µM | COc1ccc(CNCCNS(=O)(=O)c2ccc(Cl)c3ncccc23)cc1OC [(12), N-[2-(3,4-dimethoxybenzylamino)ethyl]-8-chloro-5-quinolinesulfonamide]
28 µM | O=S(=O)(NCCNCc1ccc2c(c1)OCO2)c1ccc(Cl)c2ncccc12 [(13), N-[2-(3,4-methylenedioxybenzylamino)ethyl]-8-chloro-5-quinolinesulfonamide]
97 µM | O=S(=O)(NCCNCc1ccccc1)c1ccc(Cl)c2ncccc12 [(14)]
110 µM | O=S(=O)(NCCNCCc1ccccc1)c1ccc(Cl)c2ncccc12 [(15)]
35 µM | CCOc1ccc(S(=O)(=O)NCCNCCc2ccc(OC)cc2)c2cccnc12 [(16), N-[2-(4-methoxyphenethylamino)ethyl]-8-ethoxy-5-quinolinesulfonamide]
71 µM | CCOc1ccc(S(=O)(=O)NCCNCCc2ccc(Cl)cc2)c2cccnc12 [(17), N-[2-(4-chlorophenethylamino)ethyl]-8-ethoxy-5-quinolinesulfonamide]
75 µM | CCOc1ccc(S(=O)(=O)NCCNCCc2ccc(C(F)(F)F)cc2)c2cccnc12 [(18), N-[2-(4-trifluoromethylphenethylamino)ethyl]-8-ethoxy-5-quinolinesulfonamide]
125 µM | CCOc1ccc(S(=O)(=O)NCCNCCc2ccc(OC)c(OC)c2)c2cccnc12 [(19), N-[2-(3,4-dimethoxyphenethylamino)ethyl]-8-ethoxy-5-quinolinesulfonamide]

EC50 | Compound
38 µM | CCOc1ccc(S(=O)(=O)NCCNCCc2ccc3c(c2)OCO3)c2cccnc12 [(20), N-[2-(3,4-methylenedioxyphenethylamino)ethyl]-8-ethoxy-5-quinolinesulfonamide]
128 µM | CCOc1ccc(S(=O)(=O)NCCNCc2cccc(Cl)c2)c2cccnc12 [(21), N-[2-(3-chlorobenzylamino)ethyl]-8-ethoxy-5-quinolinesulfonamide]
131 µM | CCOc1ccc(S(=O)(=O)NCCNCc2ccc(OC)cc2)c2cccnc12 [(22), N-[2-(4-methoxybenzylamino)ethyl]-8-ethoxy-5-quinolinesulfonamide]
163 µM | CCOc1ccc(S(=O)(=O)NCCNCc2ccc(OC)c(OC)c2)c2cccnc12 [(23), N-[2-(3,4-dimethoxybenzylamino)ethyl]-8-ethoxy-5-quinolinesulfonamide]
31 µM | CCOc1ccc(S(=O)(=O)NCCNCc2ccc3c(c2)OCO3)c2cccnc12 [(24), N-[2-(3,4-methylenedioxybenzylamino)ethyl]-8-ethoxy-5-quinolinesulfonamide]
105 µM | CCOc1ccc(S(=O)(=O)NCCNCc2ccccc2)c2cccnc12 [(25), N-(2-benzylaminoethyl)-8-ethoxy-5-quinolinesulfonamide]
112 µM | CCOc1ccc(S(=O)(=O)NCCNCCc2ccccc2)c2cccnc12 [(26), N-(2-phenethylaminoethyl)-8-ethoxy-5-quinolinesulfonamide]
24 µM | O=S(=O)(NCCN1CCNCC1)c1cccc2cnccc12 [(28), 1-(5-isoquinolinesulfonylaminoethyl)piperazine]
22 µM | O=S(=O)(NCCN1CCCNCC1)c1cccc2cnccc12 [(29), 1-(5-isoquinolinesulfonylaminoethyl)homopiperazine]
19 µM | O=S(=O)(NCCN1CCN(Cc2ccc3c(c2)OCO3)CC1)c1cccc2c(O)nccc12 [(34), 1-(1-hydroxy-5-isoquinolinesulfonylaminoethyl)-4-(3,4-methylenedioxybenzyl)piperazine hydrochloride]
48 µM | O=S(=O)(NCCN1CCNCC1)c1ccc(Cl)c2ncccc12 [(37), 1-(8-chloro-5-quinolinesulfonylaminoethyl) piperazine]
31 µM | O=S(=O)(NCCN1CCN(Cc2ccc3c(c2)OCO3)CC1)c1ccc(Cl)c2ncccc12 [(39), 1-(8-chloro-5-quinolinesulfonylaminoethyl)-4-(3,4-methylenedioxybenzyl)piperazine]
68 µM | O=S(=O)(NCCN1CCCN(Cc2ccc(Cl)cc2)CC1)c1ccc(Cl)c2ncccc12 [(40), 1-(8-chloro-5-quinolinesulfonylaminoethyl)-4-(4-chlorobenzyl)homopiperazine]
78 µM | O=S(=O)(NCCN1CCN(Cc2ccc(Cl)cc2)CC1)c1ccc(Cl)c2ncccc12 [(41), 1-(8-chloro-5-quinolinesulfonylaminoethyl)-4-(4-chlorobenzyl)piperazine]
95 µM | COc1ccc(CCN2CCCN(CCNS(=O)(=O)c3ccc(Cl)c4ncccc34)CC2)cc1OC [(42), 1-(8-chloro-5-quinolinesulfonylaminoethyl)-4-(3,4-dimethoxyphenethyl)homopiperazine]
106 µM | COc1ccc(CCN2CCN(CCNS(=O)(=O)c3ccc(Cl)c4ncccc34)CC2)cc1OC [(43), 1-(8-chloro-5-quinolinesulfonylaminoethyl)-4-(3,4-dimethoxyphenethyl)piperazine]

Same assay, conditions: dose required for relaxing KCl-induced contraction to 50 %; final KCl concentration: 20 mM; 37 °C; compounds other than acid addition salts used as hydrochloride; 3 specimens per group; read-out: ED₅₀ Effect on KCl-induced contraction

Compound | EC50
1-(1-hydroxy-5-isoquinolinesulfonylaminoethyl) homopiperazine hydrochloride [(33)] | 24 µM
1-(1-hydroxy-5-isoquinolinesulfonylaminoethyl) piperazine hydrochloride [(32)] | 27 µM
1-(1-hydroxy-5-isoquinolinesulfonylaminoethyl)-3-(3,4-methylenedioxybenzyl)homopiperazine hydrochloride [(35)] | 18 µM

— patent publication EP0471841A1, “SULFONAMIDE DERIVATIVE AND PHARMACEUTICAL COMPOSITION CONTAINING THE SAME” (Asahi Kasei Kogyo Kabushiki Kaisha, priority 1990, dated 1991)
